Reference: patent publication US20240123079A1 (Seagen Inc., priority 2021, published 2024)

Experiments:
786-O = assay: Cancer cell direct cytotoxicity assay (CellTiter-Glo), 786-O; type: cell-based; conditions: Homo sapiens, 786-0, 96 h, free compound, read-out: Compound X50
Protocol: (§1) Bystander activity of ADCs was evaluated using Renca cancer cells and THP1-Dual™ cells (InvivoGen) which contain an IRF-Lucia luciferase reporter. Cells were cultured in RPMI-1640 (Gibco) with 10% heat-inactivated fetal bovine serum, Pen-Strep (100 U/ml-100 μg/ml, Gibco), HEPES (10 mM, Gibco), sodium pyruvate (1 mM, Gibco), MEM non-essential amino acids (1×, Gibco), GlutaMAX (1×, Gibco), and beta-mercaptoethanol (55 μM, Gibco). Renca cells were plated in a 96-well flat bottom tissue culture-treated clear polystyrene plate (Corning Costar #3596) at 50,000 cells per well in 100 μL. On the day following the initial plating, 50,000 THP1-Dual™ cells were added to each well with the indicated concentration of ADC in a total volume of 200 μL. Supernatant was harvested at 48 hours post addition of the THP1-Dual™ cells. To measure Lucia reporter signal, 10 μL of supernatant was combined with 40 μL of QUANTI-Luc™ Luminescence assay reagent (Invivogen PN: rep-qlc1) in a 96-well clear flat bottom tissue culture-treated black polystyrene plate (Corning Costar PN: 3603) and read on a Perkin Elmer Envision plate reader. In some experiments, HEK 293T cells engineered to express a murine protein typically expressed by immune cells (target antigen C— an immune cell antigen) were plated as above instead of Renca tumor cells. Cancer Cell Direct Cytotoxicity Assay
(§2) Cancer cells were counted and plated in 40 μL complete growth media in 384-well, white-walled tissue culture treated plates (Corning). Cell plates were incubated at 37° C. and with 5% CO2 overnight to allow the cells to equilibrate. Stock solutions containing ADCs or free drugs were serially diluted in RPMI-1640+20% fetal bovine serum (FBS). 10 μL of each concentration were then added to each cell plate in duplicate. Cells were then incubated at 37° C. and with 5% CO2 for 96 hours, upon which, the cell plates were removed from the incubator and allowed to cool to room temperature for 30 minutes prior to analysis. […] The luminescence of the samples was measured using an EnVision Multimode plate reader (Perkin Elmer, Waltham, MA). […]

MDAMB231 = assay: Cancer cell direct cytotoxicity assay (CellTiter-Glo), MDAMB231; type: cell-based; conditions: Homo sapiens, MDA-MB-231; MDAMB231, 96 h, free compound; read-out: Compound X50
Protocol: as §1, §2

Renca cancer cells = assay: Renca tumor model, in vivo anti-tumor activity and weight change; conditions: for anti-tumor activity / tumor growth delay: Renca tumor-bearing Balb/c mice
Protocol: In some experiments, Renca tumor cells were engineered to express the indicated murine or human target antigen.
When tumor volumes reached 100 mm^3, the mice were dosed with either compounds or ADCs by intraperitoneal or intravenous injection at the indicated dosing schedule and tumor volumes were monitored twice weekly. Compounds were formulated in 40% PEG400 in saline.
A syngeneic system was used to assess the ability of the STING agonist ADCs to induce immune responses in vivo and drive an anti-tumor immune response. The Renca system is a subcutaneous, mouse renal adenocarcinoma model. Female Balb/c mice were implanted with 2×10^6 Renca cells subcutaneously in the flank on day 0. When mean tumor size of 100 mm^3 (measured by using the formula Volume (mm^3)=0.5*Length*Width^2 where length is the longer dimension) was reached mice were randomized into treatment groups of ≥5 mice per group. Animals were then treated intraperitoneally (ADCs or compounds) or intravenously (compounds) with the indicated treatment every 7 days, for 3 doses total (or as indicated). Tumor length and width and the weight of the animals was measured throughout the study and tumor volume was calculated using the formula above. Animals were followed until the tumor volume reached ˜1000 mm^3; animals were then euthanized.

BxPC3 = assay: Cancer cell direct cytotoxicity assay (CellTiter-Glo), BxPC3; type: cell-based; conditions: Homo sapiens, BXPC-3; BxPC3, 96 h, free compound; read-out: Compound X50
Protocol: as §1, §2

[1] = tested on: THP1-Dual™ reporter cells; assay: THP1-Dual cell reporter assay (IRF-Lucia luciferase reporter); type: cell-based, human; conditions: for EC50: Homo sapiens, THP1-Dual, free compounds, 24 h, Lucia reporter signal, read-out: EC50; for potency relative to other free compound: free drug
Summary of the method: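 THP1-Dual monocytic cells (~100,000/well) were exposed to compound for 24 h (ADCs 48 h). Secreted IRF-driven Lucia luciferase in the supernatant was quantified by QUANTI-Luc luminescence.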

DEL = assay: Cancer cell direct cytotoxicity assay (CellTiter-Glo), DEL; type: cell-based; conditions: Homo sapiens, 96 h, free compound, read-out: Compound X50
Protocol: as §1, §2

MOLM-13 = assay: Cancer cell direct cytotoxicity assay (CellTiter-Glo), MOLM-13; type: cell-based; conditions: Homo sapiens; MOLM-13, 96 h, free compound; read-out: Compound X50
Protocol: as §1, §2

A2058 = assay: Cancer cell direct cytotoxicity assay (CellTiter-Glo), A2058; type: cell-based; conditions: Homo sapiens; A2058, 96 h, free compound; read-out: Compound X50
Protocol: as §1, §2

SMILES	IC50 (786-O) [nM]	IC50 (MDAMB231) [nM]	anti-tumor activity / tumor growth delay (Renca cancer cells; q7dx3)	tolerability (Renca cancer cells; Renca tumor-bearing mice)	average weight loss after the 1st and 2nd dose (Renca cancer cells; Renca tumor-bearing mice, q7dx3) [%]	IC50 (BxPC3) [nM]	EC50 [1] [nM]	potency relative to other free compound [1]	IC50 (DEL) [nM]	IC50 (MOLM-13) [nM]	IC50 (A2058) [nM]
CCn1nc(C)cc1C(=O)Nc1nc2cc(C(N)=O)cc(O)c2n1C/C=C/Cn1c(NC(=O)c2cc(C)nn2CC)nc2cc(C(N)=O)cc(OC)c21 [Compound 1, (E)-1-(4-(5-carbamoyl-2-(1-ethyl-3-methyl-1H-pyrazole-5-carboxamido)-7-hydroxy-1H-benzo[d]imidazol-1-yl)but-2-en-1-yl)-2-(1-ethyl-3-methyl-1H-pyrazole-5-carboxamido)-7-methoxy-1H-benzo[d]imidazole-5-carboxamide]	> 1000	> 1000	some tumor growth delay	well tolerated	< 5	> 1000	5	significantly more potent	2	42	> 1000
CCn1nc(C)cc1C(=O)Nc1nc2cc(C(N)=O)cc(OC)c2n1C/C=C/Cn1c(NC(=O)c2cc(C)nn2CC)nc2cc(C(N)=O)cc(OCCCNC)c21 [Compound 12a]	> 1000	> 1000	limited anti-tumor efficacy			> 1000	21	less potent than compound 1 and compound A	3	87	> 1000
